Measured values reported in patent US20240140970A1, “A […], AND PREPARATION METHOD AND USE THEREOF” (ASCENTAWITS PHARMACEUTICALS, LTD., priority 2021, published 2024).
Several values for one entry are separate records, joined by “and”; a condition that tells them apart may be missing. Equal values may be shown once.

Experiments:
Format in all cases: in vitro ADME
[1] = Experimental table stability of AST-2660 in human urine at room temperature (LC-MS/MS); conditions: for RE (%) vs nominal / AST-2660 concentration, Mean value / AST-2660 concentration, single replicates: human urine, room temperature
Procedure: (§1) The detection method established in example 6 was used to detect the content of AST-2660 in the human urine to be tested.
(§2) Matrix: the mixed normal human urine containing an additive Na2HPO4·12H2O. • a: the internal standard working solution: AST-2660-D8 was taken, dissolved with methanol, and diluted to prepare a solution containing about 100 ng per 1 ml. • b: the solution to be tested (no internal standard compound was added to the solution to be tested at this time): it was obtained by taking a blood sample to be tested. • c: the standard working solution (no internal standard compound was added to the standard working solution at this time): an appropriate amount of AST-2660 was taken and accurately weighed, dissolved with methanol and diluted to prepare a solution containing about 1.0 mg per 1 ml, which was used as the standard working stock solution. An appropriate amount of the standard working stock solution was taken, added with the matrix and diluted to prepare standard working solutions with different concentrations containing about 200 ng, 160 ng, 100 ng, 50 ng, 10 ng, 2.0 ng, 1.0 ng and 0.5 ng per 1 ml, respectively. (The solution was stored at −70° C.) • d: the quality control sample solution: an appropriate amount of AST-2660 was taken and accurately weighed, dissolved with methanol, and diluted to prepare a solution containing about 10 μg per 1 ml, which was used as the quality control working stock solution. An appropriate amount of the quality control working stock solution was taken, and added with the matrix to prepare quality control working solutions with different concentrations containing about 150 ng, 60 ng, 15 ng, 1.5 ng and 0.5 ng per 1 ml. (The solution was stored at −70° C.)
(§3) The solution to be tested, the standard working solution and the quality control sample solution were thawed at room temperature and mixed uniformly. 100 μl of the above solution was respectively taken, added with 20 μl of the internal standard and 500 μl of methanol, and vortexed for 3 minutes to mix uniformly, and then centrifuged for 30 minutes at 2143 rcf. 450 μl of supernatant was taken, and then centrifuged for 10 minutes in a 96-well plate at 2143 rcf. It was obtained by taking 300 μl of supernatant.
(§4) Liquid phase conditions: A SHARC 1, 3 μm, 2.1*50 mm or chromatograph column with equivalent performance was used; methanol solution containing low content of ammonium acetate was used; mobile phase B was acetonitrile; the gradient elution was performed according to the following table; column temperature: 20° C.; injection volume: 5 μl.
(§5) Mass spectrometric conditions: electrospray ion source with negative ion scanning mode; spray potential: −4500 V; ion source temperature: 500° C.; collision energy (CE): −22 eV; declustering potential (DP): −55V; entrance potential (EP): −10V; collision chamber exit potential (CXP): −16V; dwell time: 100 ms; high purity nitrogen was used for all gases; AST-2660 ions pairs: m/z 147.0→m/z 62.9; the internal standard AST-2660-D8 ion pairs: m/z 155.0→m/z 62.9.
(§6) The AST-2660 standard working solution, blank sample, zero concentration sample, solution to be tested and quality control working solution with different concentrations after extraction were respectively taken and injected into LC-MS/MS for detection.
(§7) Calculation results: the relationship function y=f (x) of the ratio of the peak area of AST-2660 to that of the internal standard was obtained from AST-2660 standard working solutions with different concentrations. The ratio of the peak area of AST-2660 to that of the internal standard was determined from the solution to be tested after extraction, and substituted into the relationship function y=f (x) to calculate the concentration of the metabolite II in the solution to be tested.

[2] = Freeze/thaw stability of AST-2660 in human urine (LC-MS/MS)
Procedure: as §1, §2, §3, §4, §5, §6, §7

[3] = Stability of AST-2660 in human urine at −20° C. and −70° C. for one month (LC-MS/MS)
Procedure: as §1, §2, §3, §4, §5, §6, §7

[4] = QC1 nominal 1.50 ng/ml, 4 hours
[5] = QC1 nominal 1.50 ng/ml, 24 hours
[6] = QC4 nominal 150 ng/ml, 24 hours
[7] = human urine, DilQC (10-fold dilution) nominal 1500 ng/ml, 3 freeze/thaw cycles at −70° C.
[8] = human urine, DilQC (10-fold dilution) nominal 1500 ng/ml, 5 freeze/thaw cycles at −70° C.
[9] = human urine, QC1 nominal 1.50 ng/ml, 3 freeze/thaw cycles at −70° C.
[10] = human urine, QC1 nominal 1.50 ng/ml, 5 freeze/thaw cycles at −70° C.
[11] = human urine, QC4 nominal 150 ng/ml, 3 freeze/thaw cycles at −70° C.
[12] = human urine, QC4 nominal 150 ng/ml, 5 freeze/thaw cycles at −20° C.
[13] = human urine, QC4 nominal 150 ng/ml, 5 freeze/thaw cycles at −70° C.
[14] = DilQC (10-fold dilution) nominal 1500 ng/ml, 32 days at −20° C.
[15] = DilQC (10-fold dilution) nominal 1500 ng/ml, 32 days at −70° C.
[16] = QC1 nominal 1.50 ng/ml, 32 days at −70° C. (actually tested on day 34)
[17] = QC4 nominal 150 ng/ml, 32 days at −20° C.
[18] = QC4 nominal 150 ng/ml, 32 days at −70° C.

## O=P([O-])(N1CC1)N1CC1.[Na+] [AST-2660]
[1]; human urine at room temperature for 4 hours, 1.5, 150 and 1500 ng/ml
  RE (accuracy), range over three concentration levels: RE: −8.5% to 4.5%
[1]; DilQC (10-fold dilution) nominal 1500 ng/ml, 0 hour
  RE (%) vs nominal: −5.7%
[1]; DilQC (10-fold dilution) nominal 1500 ng/ml, 4 hours
  RE (%) vs nominal: −5.7%
[1]; DilQC (10-fold dilution) nominal 1500 ng/ml, 24 hours
  RE (%) vs nominal: −13.2%
[1]; QC1 nominal 1.50 ng/ml, 0 hour
  AST-2660 concentration, Mean value: 1.37 ng/mL
  AST-2660 concentration, single replicates: 1.44 ng/mL
  RE (%) vs nominal: −8.5%
[1]; [4]
  AST-2660 concentration, Mean value: 1.45 ng/mL
  AST-2660 concentration, single replicates: 1.51 ng/mL
  RE (%) vs nominal: −3.7%
[1]; [5]
  AST-2660 concentration, Mean value: 1.90 ng/mL
  AST-2660 concentration, single replicates: 2.07 ng/mL
  RE (%) vs nominal: 26.7%
[1]; QC4 nominal 150 ng/ml, 0 hour
  AST-2660 concentration, single replicates: 141 ng/mL and 144 ng/mL and 142 ng/mL and 146 ng/mL
  RE (%) vs nominal: −4.5%
[1]; QC4 nominal 150 ng/ml, 4 hours
  AST-2660 concentration, single replicates: 156 ng/mL and 154 ng/mL and 159 ng/mL
  RE (%) vs nominal: 4.5%
[1]; [6]
  AST-2660 concentration, single replicates: 149 ng/ml (2×) and 154 ng/ml
  RE (%) vs nominal: 0.8%
[1]; untreated human urine samples, 24 hours at room temperature
  stability (in words): stable
[2]; freezing/thawing at −70° C. for up to 3 cycles, 1.5, 150 and 1500 ng/ml
  RE (accuracy), range over three concentration levels: RE: −11.8% to 12.5%
[2]; [7]
  AST-2660 concentration, Mean value: 1540 ng/mL
  AST-2660 concentration, single replicates: 1650 ng/ml and 1500 ng/ml (2×) and 1510 ng/ml
  RE (%) vs nominal: 2.7%
[2]; human urine, DilQC (10-fold dilution) nominal 1500 ng/ml, 5 freeze/thaw cycles at −20° C.
  AST-2660 concentration, single replicates: <LLOQ (5.00) ng/ml
[2]; [8]
  AST-2660 concentration, Mean value: 1508 ng/mL
  AST-2660 concentration, single replicates: 1490 ng/ml and 1500 ng/ml (2×) and 1540 ng/ml
  RE (%) vs nominal: 0.5%
[2]; [9]
  AST-2660 concentration, Mean value: 1.60 ng/mL
  AST-2660 concentration, single replicates: 1.69 ng/mL and 1.72 ng/mL and 1.47 ng/mL and 1.51 ng/mL
  RE (%) vs nominal: 6.5%
[2]; human urine, QC1 nominal 1.50 ng/ml, 5 freeze/thaw cycles at −20° C.
  AST-2660 concentration, single replicates: <LLOQ (0.500) ng/ml
[2]; [10]
  AST-2660 concentration, Mean value: 1.73 ng/mL
  AST-2660 concentration, single replicates: 2.14 ng/mL and 1.58 ng/mL and 1.68 ng/mL and 1.52 ng/mL
  RE (%) vs nominal: 15.3%
[2]; [11]
  AST-2660 concentration, Mean value: 149 ng/mL
  AST-2660 concentration, single replicates: 145 ng/ml and 148 ng/ml (2×) and 154 ng/ml
  RE (%) vs nominal: −0.8%
[2]; [12]
  AST-2660 concentration, Mean value: 13 ng/mL
  AST-2660 concentration, single replicates: 12.2 ng/mL and 13.0 ng/mL and 12.3 ng/mL and 12.5 ng/mL
  RE (%) vs nominal: −91.7%
[2]; [13]
  AST-2660 concentration, Mean value: 173 ng/mL
  AST-2660 concentration, single replicates: 172 ng/ml (2×) and 169 ng/ml and 178 ng/ml
  RE (%) vs nominal: 15.2%
[2]; human urine, freeze-thaw process from −20° C. to room temperature
  reduction of AST-2660 content: ~90%
[2]; human urine, freeze-thaw process from −70° C. to room temperature
  change of AST-2660 content (in words): almost no reduction
[3]; 32 days of storage at −20° C.
  reduction of AST-2660 content: ~90%
[3]; 32 days of storage at −70° C.
  change of AST-2660 content (in words): almost no reduction
[3]; [14]
  AST-2660 concentration, Mean value: 7.23 ng/mL
  AST-2660 concentration, single replicates: 6.87 ng/mL and 7.70 ng/mL and 7.73 ng/mL and 6.60 ng/mL
  RE (%) vs nominal: −99.5%
[3]; [15]
  AST-2660 concentration, Mean value: 1483 ng/mL
  AST-2660 concentration, single replicates: 1570 ng/mL and 1400 ng/mL and 1470 ng/mL and 1490 ng/mL
  RE (%) vs nominal: −1.2%
[3]; QC1 nominal 1.50 ng/ml, 32 days at −20° C.
  AST-2660 concentration, single replicates: <LLOQ (0.500) ng/ml
[3]; [16]
  AST-2660 concentration, Mean value: 1.71 ng/mL
  AST-2660 concentration, single replicates: 1.53 ng/mL and 1.97 ng/mL and 1.72 ng/mL and 1.60 ng/mL
  RE (%) vs nominal: 13.7%
[3]; [17]
  AST-2660 concentration, Mean value: 13.4 ng/mL
  AST-2660 concentration, single replicates: 13.1 ng/mL and 12.4 ng/mL and 12.9 ng/mL and 15.2 ng/mL
  RE (%) vs nominal: −91.1%
[3]; [18]
  AST-2660 concentration, Mean value: 161 ng/mL
  AST-2660 concentration, single replicates: 155 ng/mL and 159 ng/mL and 161 ng/mL and 168 ng/mL
  RE (%) vs nominal: 7.2%
